Here are results for one substance from patent US10093973B2, “Polymerase compositions and methods” (LIFE TECHNOLOGIES CORPORATION, priority 2009, dated 2018).

Experiment [1] deals with ωdN4P and extendible AF546 primer:template duplex. Briefly: Stopped-flow tpol measurement of Example 8. The note with it: modified versus reference polymerase, ωdN4P 14 μM. In kind it is biochemical. The protocol: In this example, the tpol values of an exemplary modified polymerase comprising the amino acid of SEQ ID NO: 8 and was measured and compared to the tpol value of an exemplary reference polymerase comprising the amino acid sequence of SEQ ID NO: 20. These kinetic parameters were evaluated using a stopped-flow assay wherein a mixture comprising an extendible dye-labeled primer:template duplex and test polymerase was mixed with a solution comprising terminally-labeled nucleotide tetraphosphates or terminally-labeled nucleotide hexaphosphates. These terminally-labeled nucleotides comprise terminal-phosphate-labeled nucleotides having an alkyl linker with a functional amine group attached to the dye. The fluorescence of the resulting mixture was monitored over time. Unless noted otherwise, all concentrations refer to the initial concentrations prior to mixing. […]
Each primer-template duplex (200 nM) was preincubated with test polymerase (660 nM) and to form an E.DNA binary complex. This binary complex was mixed with the cognate omega-labeled nucleoside tetraphosphate (ωdN4P; 14 μM) in a stopped-flow experiment, and the fluorescence at both 546 nm and 647 nm was monitored following mixing. The averaged stopped-flow fluorescence traces were fitted with the double exponential function of Equation (2) to extrapolate the tpol value of the test polymerase: […]

The next experiment has as its system primer-template duplex. As to the kind of experiment: Fractional extension activity assay. In kind it is biochemical. As to conditions: versus reference RB69 (SEQ ID NO: 15) and His-tagged Phi-29 (SEQ ID NO: 20); 330 nM enzyme, 1 μM dNTP, room temperature, 10 seconds. As for the experimental part: The fractional extension activity of an exemplary modified polymerase having the amino acid of SEQ ID NO: 8 (referred to as “B104(exo-)” in FIG. 3) was measured and compared to the fractional extension activities of two different exemplary reference polymerases, including an RB69 reference polymerase comprising the amino acid sequence SEQ ID NO: 15 and a His-tagged Phi-29 reference polymerase comprising the amino acid sequence of SEQ ID NO: 20 (referred to herein as “HP1 polymerase”). All polymerases were prepared according to the method of Example 1. Both modified and reference polymerases were evaluated and compared in an assay to measure the fractional extension activity of each polymerase, i.e., the fraction of nucleic acid templates that are extended by at least one nucleotide in a polymerase reaction. In this assay, the fractional extension activity of a polymerase is defined as the fraction (measured as a percentage fraction) of nucleic acid templates that are extended by at least one nucleotide by the test or reference polymerase under the following reaction conditions: 50 mM Tris, pH 7.0, 50 mM NaCl, 1 mM MnCl2, 1 μM dNTP, 330 nM enzyme, 100 nM primer-template duplex and 0.5% BSA, wherein the extension is performed at room temperature for 10 seconds.
The primer-template duplex was formed by annealing the following polynucleotides: […]

Changes are numbered by the printed parent chain.

Turning to “mB103 (SEQ ID: 8): B103 polymerase triple mutant with D166A, F383L and D384N”, the estimated tpol values entry in experiment [1] was “comparable”. Moreover, the fractional extension activity result in the experiment on primer-template duplex is recorded as “higher”.
